Data reported in US20110135755A1, “Combination therapies for treating neoplastic disease” (priority 2009, published 2011).
Entries after “also recorded” stand apart in the source; their conditions may differ.

Columns and labels:
[1] = Element concentrations in kidney samples of treated rats; assay type: in vivo; details: rat kidney; cisplatin single iv 6.5 mg/kg; CV247 oral 3 ml/kg bd, fourteen days
From the text: Liver and kidney samples were subsequently examined to see if CV 247 protected the rats from the accumulation of platinum and platinum free radicals, and what kind of metal ion concentration changes occur after treatment.

[2] = test system: HCT 8 and T47D cell lines; experiment: MTT, SRB and CVE assays with exposure of up to 10 days; assay type: cell-based; details: 18000 and 26000 cells/well
From the text: Graphs depicting the results obtained are shown in FIGS. 6 to 11 (it should be noted that some graphs have the x axis displaying cancer cell kill, whilst others display cancer cell viability).

N.N.[Cl][Pt][Cl] [Cisplatin, cis-diamminedichloroplatinum]
Pt [1]: 3.048 ± 0.583 | effect on cancer cell kill / viability at cisplatin dose of 1 mg ([2]; cisplatin 1 mg alone or with CV247): only a marginal long term benefit; also recorded: effect after 4 days was often reduced | effect on cancer cell kill / viability ([2]; high doses of cisplatin, CV247 alone): cytotoxic
